Experimental findings from doi:10.1101/2023.03.24.534094v2 (biorxiv, 2023) are described below.

Where two headings read alike, the source gives them in different places.

Some targets named below: GSK3B (Homo sapiens, UniProt P49841); CaMK2d (Homo sapiens, UniProt Q13557); OSR1 (Homo sapiens, UniProt O95747).
Common to all, as to assay: biochemical
The next test has as its target T1, VRK1 (Homo sapiens, UniProt Q99986).
T1 sequence (Q99986 1-396): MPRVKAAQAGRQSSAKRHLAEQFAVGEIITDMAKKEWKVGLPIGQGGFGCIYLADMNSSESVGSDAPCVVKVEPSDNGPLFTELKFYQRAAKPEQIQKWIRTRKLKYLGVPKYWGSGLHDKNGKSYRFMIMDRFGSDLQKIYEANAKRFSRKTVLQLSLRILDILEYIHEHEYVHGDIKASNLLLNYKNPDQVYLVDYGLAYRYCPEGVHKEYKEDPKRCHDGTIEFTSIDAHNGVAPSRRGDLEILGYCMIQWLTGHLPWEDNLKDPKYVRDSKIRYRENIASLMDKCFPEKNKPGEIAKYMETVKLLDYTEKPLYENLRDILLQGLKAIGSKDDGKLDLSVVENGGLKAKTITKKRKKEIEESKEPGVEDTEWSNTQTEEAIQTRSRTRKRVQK

The target of a further test is T2, NEK1 (Homo sapiens, UniProt Q96PY6).
T2 sequence (Q96PY6 1-1258): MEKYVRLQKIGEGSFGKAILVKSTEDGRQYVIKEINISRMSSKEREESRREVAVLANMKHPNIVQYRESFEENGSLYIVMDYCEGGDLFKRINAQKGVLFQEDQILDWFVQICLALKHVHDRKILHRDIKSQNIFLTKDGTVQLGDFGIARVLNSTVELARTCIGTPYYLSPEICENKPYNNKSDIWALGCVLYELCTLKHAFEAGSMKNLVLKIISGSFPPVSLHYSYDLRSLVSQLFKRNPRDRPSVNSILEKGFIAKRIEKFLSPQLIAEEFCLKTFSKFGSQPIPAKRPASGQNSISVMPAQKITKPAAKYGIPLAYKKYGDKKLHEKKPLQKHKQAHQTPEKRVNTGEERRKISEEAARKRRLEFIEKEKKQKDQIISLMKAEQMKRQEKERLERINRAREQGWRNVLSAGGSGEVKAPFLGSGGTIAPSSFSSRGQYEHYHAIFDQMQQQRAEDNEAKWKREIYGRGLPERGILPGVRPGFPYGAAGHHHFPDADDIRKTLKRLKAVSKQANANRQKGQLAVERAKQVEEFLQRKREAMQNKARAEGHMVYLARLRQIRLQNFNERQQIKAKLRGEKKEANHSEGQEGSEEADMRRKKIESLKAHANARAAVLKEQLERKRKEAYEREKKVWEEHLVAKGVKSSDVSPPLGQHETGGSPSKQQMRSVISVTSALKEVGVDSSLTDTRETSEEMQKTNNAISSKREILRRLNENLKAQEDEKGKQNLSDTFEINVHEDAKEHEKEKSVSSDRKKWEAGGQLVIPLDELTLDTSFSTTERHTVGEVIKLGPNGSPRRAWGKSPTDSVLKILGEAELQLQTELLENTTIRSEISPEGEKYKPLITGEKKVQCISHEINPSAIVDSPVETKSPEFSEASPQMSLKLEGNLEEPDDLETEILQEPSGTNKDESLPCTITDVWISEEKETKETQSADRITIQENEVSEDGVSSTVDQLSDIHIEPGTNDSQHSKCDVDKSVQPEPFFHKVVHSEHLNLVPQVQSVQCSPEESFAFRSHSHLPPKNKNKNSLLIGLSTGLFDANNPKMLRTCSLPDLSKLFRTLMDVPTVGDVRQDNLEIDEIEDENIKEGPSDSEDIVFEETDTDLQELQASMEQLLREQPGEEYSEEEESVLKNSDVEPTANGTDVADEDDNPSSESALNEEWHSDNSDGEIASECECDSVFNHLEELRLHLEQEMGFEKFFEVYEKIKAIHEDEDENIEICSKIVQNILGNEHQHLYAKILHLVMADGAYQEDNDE

The next test addresses T3, BMX (Homo sapiens, UniProt P51813).
T3 sequence (P51813 1-675): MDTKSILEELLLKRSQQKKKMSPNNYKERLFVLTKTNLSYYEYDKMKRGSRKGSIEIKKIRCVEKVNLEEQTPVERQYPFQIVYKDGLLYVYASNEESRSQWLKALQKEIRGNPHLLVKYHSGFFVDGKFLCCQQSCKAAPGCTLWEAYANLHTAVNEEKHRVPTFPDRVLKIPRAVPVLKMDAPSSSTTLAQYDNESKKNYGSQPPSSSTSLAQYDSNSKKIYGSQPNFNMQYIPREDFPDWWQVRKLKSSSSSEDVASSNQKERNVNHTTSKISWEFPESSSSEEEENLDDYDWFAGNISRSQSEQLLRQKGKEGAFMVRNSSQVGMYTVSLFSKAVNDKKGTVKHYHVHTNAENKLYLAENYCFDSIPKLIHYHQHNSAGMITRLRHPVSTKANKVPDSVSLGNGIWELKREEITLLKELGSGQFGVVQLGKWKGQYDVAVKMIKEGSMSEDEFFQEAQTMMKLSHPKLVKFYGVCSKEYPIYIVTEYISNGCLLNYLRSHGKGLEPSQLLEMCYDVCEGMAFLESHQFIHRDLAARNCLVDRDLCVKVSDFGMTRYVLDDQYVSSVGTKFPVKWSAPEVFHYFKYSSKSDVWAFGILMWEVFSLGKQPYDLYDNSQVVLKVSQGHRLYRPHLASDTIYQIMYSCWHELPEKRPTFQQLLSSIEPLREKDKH

CaMK2d, sequence (Q13557 whole entry): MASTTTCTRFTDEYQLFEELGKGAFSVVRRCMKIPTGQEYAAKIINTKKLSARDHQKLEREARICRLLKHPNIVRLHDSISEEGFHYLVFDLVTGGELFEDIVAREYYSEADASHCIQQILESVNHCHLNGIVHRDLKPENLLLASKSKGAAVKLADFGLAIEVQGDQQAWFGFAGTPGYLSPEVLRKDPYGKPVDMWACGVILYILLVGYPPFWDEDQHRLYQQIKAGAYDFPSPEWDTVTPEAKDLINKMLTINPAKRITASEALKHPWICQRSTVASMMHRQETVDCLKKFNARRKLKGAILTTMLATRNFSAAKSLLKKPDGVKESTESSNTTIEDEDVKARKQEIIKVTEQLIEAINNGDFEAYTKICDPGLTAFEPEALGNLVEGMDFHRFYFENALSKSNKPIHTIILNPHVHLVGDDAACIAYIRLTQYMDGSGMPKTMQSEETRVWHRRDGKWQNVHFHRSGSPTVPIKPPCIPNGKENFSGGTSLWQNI
OSR1, sequence (O95747 whole entry): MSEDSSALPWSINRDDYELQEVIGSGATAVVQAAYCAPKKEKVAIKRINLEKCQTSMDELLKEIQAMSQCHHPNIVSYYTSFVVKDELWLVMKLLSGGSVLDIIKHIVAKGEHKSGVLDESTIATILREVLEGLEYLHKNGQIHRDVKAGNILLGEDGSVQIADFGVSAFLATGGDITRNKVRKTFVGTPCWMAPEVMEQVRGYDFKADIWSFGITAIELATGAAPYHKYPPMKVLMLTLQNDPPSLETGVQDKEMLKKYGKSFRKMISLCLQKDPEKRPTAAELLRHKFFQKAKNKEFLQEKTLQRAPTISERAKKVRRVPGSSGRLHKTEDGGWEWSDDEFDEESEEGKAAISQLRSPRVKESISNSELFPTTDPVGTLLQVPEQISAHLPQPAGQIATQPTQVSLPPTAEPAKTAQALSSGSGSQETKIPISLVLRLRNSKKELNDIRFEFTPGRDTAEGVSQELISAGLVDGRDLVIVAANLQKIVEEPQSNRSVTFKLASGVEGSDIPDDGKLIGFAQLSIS
GSK3B, sequence (P49841 whole entry): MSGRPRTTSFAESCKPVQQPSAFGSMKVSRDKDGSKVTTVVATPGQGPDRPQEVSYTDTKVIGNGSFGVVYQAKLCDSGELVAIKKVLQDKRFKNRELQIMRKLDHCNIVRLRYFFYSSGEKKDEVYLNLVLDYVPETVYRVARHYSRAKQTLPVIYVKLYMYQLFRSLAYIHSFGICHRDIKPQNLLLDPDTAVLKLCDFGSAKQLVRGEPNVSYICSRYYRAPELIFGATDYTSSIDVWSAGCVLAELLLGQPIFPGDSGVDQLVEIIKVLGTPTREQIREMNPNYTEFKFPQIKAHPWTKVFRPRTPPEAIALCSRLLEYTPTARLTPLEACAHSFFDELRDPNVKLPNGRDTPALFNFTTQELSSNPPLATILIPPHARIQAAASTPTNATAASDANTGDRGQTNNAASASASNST

On to `CNc1ncc2cc(-c3cc(Cl)ccc3Cl)c(=O)n(CCCCN)c2n1` [compound 8, 8-(4-Aminobutyl)-6-(2,5-dichlorophenyl)-2-(methylamino)pyrido[2,3-d]pyrimidin-7(8H)-one], for which the ΔTm at 10 µM is 0.7 °C on VRK1 (read-out: dTm 8); 1 °C at GSK3B (read-out: dTm 8); 0.1 °C on NEK1 (read-out: dTm 8); 4 °C on BMX (read-out: dTm 8); 0.4 °C on CaMK2d (read-out: dTm 8); 0.3 °C on OSR1 (read-out: dTm 8).

On to `CNc1ncc2cc(-c3cc(Cl)ccc3Br)c(=O)n(CCCCN)c2n1` [compound 10, 8-(4-Aminobutyl)-6-(2-bromo-5-chlorophenyl)-2-(methylamino)pyrido[2,3-d]pyrimidin-7(8H)-one], for which the ΔTm at 10 µM at VRK1 (read-out: dTm 10) is 0.7 °C; at GSK3B (read-out: dTm 10) it was 0.8 °C; on NEK1 (read-out: dTm 10), 0.1 °C; on BMX (read-out: dTm 10), 3.9 °C; at CaMK2d (read-out: dTm 10), 0.5 °C; at OSR1 (read-out: dTm 10), -0.2 °C.

As to `CNc1ncc2cc(-c3cc(Br)ccc3Br)c(=O)n(CCCCN)c2n1` [compound 11, 8-(4-Aminobutyl)-6-(2,5-dibromophenyl)-2-(methylamino)pyrido[2,3-d]pyrimidin-7(8H)-one], the ΔTm at 10 µM on VRK1 (read-out: dTm 11) was found to be 0.5 °C; on GSK3B (read-out: dTm 11) it was 0.8 °C; on NEK1 (read-out: dTm 11), 0.1 °C; at BMX (read-out: dTm 11), 4.2 °C; at CaMK2d (read-out: dTm 11), 0.2 °C; on OSR1 (read-out: dTm 11), 0.4 °C.

With `CNc1ncc2cc(-c3cc(C(F)(F)F)ccc3Cl)c(=O)n(CCCCN)c2n1` [compound 9, 8-(4-Aminobutyl)-6-(2-chloro-5-(trifluoromethyl)phenyl)-2-(methylamino)pyrido[2,3-d]pyrimidin-7(8H)-one], the ΔTm at 10 µM on VRK1 (read-out: dTm 9) is 0.1 °C; on GSK3B (read-out: dTm 9) it was 0.8 °C; at NEK1 (read-out: dTm 9), 0.1 °C; at BMX (read-out: dTm 9), 3.2 °C; at CaMK2d (read-out: dTm 9), 0.2 °C; at OSR1 (read-out: dTm 9), 0.3 °C.

For `CNc1ncc2cc(-c3cc(F)c(-c4cccc(C)n4)cc3F)c(=O)n(CCCCN)c2n1` [compound 12, 8-(4-Aminobutyl)-6-(2,5-difluoro-4-(6-methylpyridin-2-yl)phenyl)-2-(methylamino)pyrido[2,3-d]pyrimidin-7(8H)-one], the ΔTm at 10 µM at VRK1 (read-out: dTm 12) is 0.3 °C; on GSK3B (read-out: dTm 12), 1.7 °C; at NEK1 (read-out: dTm 12) it was -0.4 °C; at BMX (read-out: dTm 12), 3.6 °C; on CaMK2d (read-out: dTm 12), -0.2 °C; at OSR1 (read-out: dTm 12), -0.2 °C.
